{
  "source": "ChEMBL document CHEMBL3886923",
  "about": "“BTK inhibitors” (2016)",
  "biological_target": "Tyrosine-protein kinase BTK (Homo sapiens, UniProt Q06187)",
  "sequence (Q06187 whole entry)": "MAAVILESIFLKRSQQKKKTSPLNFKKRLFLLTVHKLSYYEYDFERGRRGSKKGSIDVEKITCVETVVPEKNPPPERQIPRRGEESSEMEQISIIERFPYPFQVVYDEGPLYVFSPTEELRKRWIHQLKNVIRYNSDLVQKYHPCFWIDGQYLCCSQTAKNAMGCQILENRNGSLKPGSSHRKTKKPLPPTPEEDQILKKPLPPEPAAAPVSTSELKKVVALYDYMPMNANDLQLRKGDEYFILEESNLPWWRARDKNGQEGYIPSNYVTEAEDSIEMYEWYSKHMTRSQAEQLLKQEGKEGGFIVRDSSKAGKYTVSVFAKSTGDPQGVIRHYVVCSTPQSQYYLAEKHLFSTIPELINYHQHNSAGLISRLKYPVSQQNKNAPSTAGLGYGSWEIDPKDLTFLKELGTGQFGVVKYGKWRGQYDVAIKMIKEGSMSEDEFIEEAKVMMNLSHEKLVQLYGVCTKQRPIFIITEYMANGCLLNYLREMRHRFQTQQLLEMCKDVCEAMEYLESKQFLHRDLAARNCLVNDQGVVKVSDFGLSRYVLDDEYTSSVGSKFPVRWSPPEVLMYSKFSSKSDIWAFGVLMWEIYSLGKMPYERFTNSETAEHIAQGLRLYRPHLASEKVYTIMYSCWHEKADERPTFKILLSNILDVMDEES",
  "experiment": "LANCE-TR-FRET Assay: Assay Method B: BTK enzymatic activity was determined with the LANCE (Lanthanide Chelate Excite) TR-FRET (Time-resolved fluorescence resonance energy transfer) assay. In this assay, the potency (IC50) of each compound was determined from an eleven point (1:3 serial dilution; final compound concentration range in assay from 1 μM to 0.017 nM) titration curve using the following outlined procedure. To each well of a black non-binding surface Corning 384-well microplate (Corning Catalog #3820), 5 nL of compound (2000 fold dilution in final assay volume of 10 μL) was dispensed, followed by the addition of 7.5 μL of 1× kinase buffer (50 mM Hepes 7.5, 10 mM MgCl2, 0.01% Brij-35, 1 mM EGTA, 0.05% BSA & 1 mM DTT) containing 5.09 pg/μL (66.67 pM) of BTK enzyme (recombinant protein from baculovirus-transfected Sf9 cells: full-length BTK, 6HIS-tag cleaved). Following a 60 minute compound & enzyme incubation, each reaction was initiated by the addition of 2.5 μL 1× kinase buffer containing 8 μM biotinylated \"A5\" peptide (Biotin-EQEDEPEGDYFEWLE-NH2), and 100 μM ATP. The final reaction in each well of 10 μL consists of 50 pM hBTK, 2 μM biotin-A5-peptide, and 25 μM ATP. Phosphorylation reactions were allowed to proceed for 120 minutes. […]",
  "data": [
    {"molecule": "Cn1ncc2c1CCC[C@@H]2n1nc(-c2ccc(C(=O)Nc3cc(C(F)(F)F)ccn3)cc2)c2c(N)ncnc21", "values": [
      {"measurement": "IC50", "result": 2.7, "unit": "nM"}
    ]}
  ]
}
